US20230085307A1, “PYRIDAZINONE COMPOUND AND HERBICIDE” (NISSAN CHEMICAL CORPORATION, priority 2019, published 2023)

Key:
redroot pigweed [1] = experiment: Test Example 4: herbicidal effect by soil treatment (Table 19, symbol N); assay type: in vivo, redroot pigweed (Amaranthus retroflexus); conditions: amount of applied herbicide 320 g/ha
Outline: (§1)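 Seeds were sown in sterilized diluvial soil and covered with about 1.5 cm of soil. An emulsion formulation diluted with water to a predetermined herbicide amount was sprayed evenly onto the soil surface. Plants grew in a greenhouse at 25° C. to 30° C., and the effect was scored three weeks after application using criteria from an earlier test.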

persian speedwell [2] = experiment: Test Example 5: herbicidal effect by foliage application, plastic box (Table 20, symbol R); assay type: in vivo, Persian speedwell (Veronica persica); conditions: foliage application, 320 g/ha, evaluated three weeks after application
Outline: (§2)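 Plants sown in sterilized diluvial soil and grown 14 days in a greenhouse at 25° C to 30° C, then sprayed on the foliage with the compound's emulsion diluted in water to a predetermined herbicide amount. Injury to weeds and crops scored three weeks after application on a visual rating scale.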

windgrass [3] = experiment: Test Example 5: herbicidal effect by foliage application, plastic box (Table 20, symbol L); assay type: in vivo, windgrass (Apera spica-venti); conditions: foliage application, 320 g/ha, evaluated three weeks after application
Outline: as §2

velvetleaf [4] = experiment: Test Example 5: herbicidal effect by foliage application, plastic box (Table 20, symbol M); assay type: in vivo, velvetleaf (Abutilon theophrasti); conditions: foliage application, 320 g/ha, evaluated three weeks after application
Outline: as §2

southern crabgrass [5] = experiment: Test Example 5: herbicidal effect by foliage application, plastic box (Table 20, symbol F); assay type: in vivo, southern crabgrass (Digitaria ciliaris); conditions: foliage application, 320 g/ha, evaluated three weeks after application
Outline: as §2

rice flat sedge = experiment: Test Example 3: herbicidal effect by foliage application, Wagner pot (Table 18, symbol E); assay type: in vivo, rice flat sedge (Cyperus iria); conditions: amount of applied herbicide 320 g/ha
Outline: (§3)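 Plants were sown in alluvial soil held under 0.1–0.5 cm standing water and grown 14 days in a greenhouse at 25–30 °C. An emulsifiable formulation, water-diluted to the set dose, was then sprayed onto the foliage, and effects were scored three weeks later using previously defined criteria.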

Italian ryegrass [6] = experiment: Test Example 5: herbicidal effect by foliage application, plastic box (Table 20, symbol K); assay type: in vivo, Italian ryegrass (Lolium multiflorum); conditions: foliage application, 320 g/ha, evaluated three weeks after application
Outline: as §2

southern crabgrass [7] = experiment: Test Example 4: herbicidal effect by soil treatment (Table 19, symbol F); assay type: in vivo, southern crabgrass (Digitaria ciliaris); conditions: amount of applied herbicide 320 g/ha
Outline: as §1

lambsquarters [8] = experiment: Test Example 5: herbicidal effect by foliage application, plastic box (Table 20, symbol O); assay type: in vivo, lambsquarters (Chenopodium album); conditions: foliage application, 320 g/ha, evaluated three weeks after application
Outline: as §2

barnyard grass [9] = experiment: Test Example 5: herbicidal effect by foliage application, plastic box (Table 20, symbol H); assay type: in vivo, barnyard grass (Echinochloa crus-galli); conditions: foliage application, 320 g/ha, evaluated three weeks after application
Outline: as §2

green foxtail [10] = experiment: Test Example 4: herbicidal effect by soil treatment (Table 19, symbol G); assay type: in vivo, green foxtail (Setaria viridis); conditions: amount of applied herbicide 320 g/ha
Outline: as §1

barnyard grass [11] = experiment: Test Example 3: herbicidal effect by foliage application, Wagner pot (Table 18, symbol H); assay type: in vivo, barnyard grass (Echinochloa crus-galli); conditions: amount of applied herbicide 320 g/ha
Outline: as §3

velvetleaf [12] = experiment: Test Example 4: herbicidal effect by soil treatment (Table 19, symbol M); assay type: in vivo, velvetleaf (Abutilon theophrasti); conditions: amount of applied herbicide 320 g/ha
Outline: as §1

Chinese sprangletop = experiment: Test Example 3: herbicidal effect by foliage application, Wagner pot (Table 18, symbol D); assay type: in vivo, chinese sprangletop (Leptochloa chinensis); conditions: amount of applied herbicide 320 g/ha
Outline: as §3

blackgrass [13] = experiment: Test Example 4: herbicidal effect by soil treatment (Table 19, symbol J); assay type: in vivo, blackgrass (Alopecurus myosuroides); conditions: amount of applied herbicide 320 g/ha
Outline: as §1

green foxtail [14] = experiment: Test Example 5: herbicidal effect by foliage application, plastic box (Table 20, symbol G); assay type: in vivo, green foxtail (Setaria viridis); conditions: foliage application, 320 g/ha, evaluated three weeks after application
Outline: as §2

blackgrass [15] = experiment: Test Example 5: herbicidal effect by foliage application, plastic box (Table 20, symbol J); assay type: in vivo, blackgrass (Alopecurus myosuroides); conditions: foliage application, 320 g/ha, evaluated three weeks after application
Outline: as §2

redroot pigweed [16] = experiment: Test Example 5: herbicidal effect by foliage application, plastic box (Table 20, symbol N); assay type: in vivo, redroot pigweed (Amaranthus retroflexus); conditions: foliage application, 320 g/ha, evaluated three weeks after application
Outline: as §2

lambsquarters [17] = experiment: Test Example 4: herbicidal effect by soil treatment (Table 19, symbol O); assay type: in vivo, lambsquarters (Chenopodium album); conditions: amount of applied herbicide 320 g/ha
Outline: as §1

Italian ryegrass [18] = experiment: Test Example 4: herbicidal effect by soil treatment (Table 19, symbol K); assay type: in vivo, Italian ryegrass (Lolium multiflorum); conditions: amount of applied herbicide 320 g/ha
Outline: as §1

wild oat [19] = experiment: Test Example 4: herbicidal effect by soil treatment (Table 19, symbol I); assay type: in vivo, wild oat (Avena fatua); conditions: amount of applied herbicide 320 g/ha
Outline: as §1

chickweed [20] = experiment: Test Example 4: herbicidal effect by soil treatment (Table 19, symbol P); assay type: in vivo, common chickweed (Stellaria media); conditions: amount of applied herbicide 320 g/ha
Outline: as §1

persian speedwell [21] = experiment: Test Example 4: herbicidal effect by soil treatment (Table 19, symbol R); assay type: in vivo, Persian speedwell (Veronica persica); conditions: amount of applied herbicide 320 g/ha
Outline: as §1

wild oat [22] = experiment: Test Example 5: herbicidal effect by foliage application, plastic box (Table 20, symbol I); assay type: in vivo, wild oat (Avena fatua); conditions: foliage application, 320 g/ha, evaluated three weeks after application
Outline: as §2

barnyard grass [23] = experiment: Test Example 4: herbicidal effect by soil treatment (Table 19, symbol H); assay type: in vivo, barnyard grass (Echinochloa crus-galli); conditions: amount of applied herbicide 320 g/ha
Outline: as §1

windgrass [24] = experiment: Test Example 4: herbicidal effect by soil treatment (Table 19, symbol L); assay type: in vivo, windgrass (Apera spica-venti); conditions: amount of applied herbicide 320 g/ha
Outline: as §1

chickweed [25] = experiment: Test Example 5: herbicidal effect by foliage application, plastic box (Table 20, symbol P); assay type: in vivo, common chickweed (Stellaria media); conditions: foliage application, 320 g/ha, evaluated three weeks after application
Outline: as §2

## COc1ccccc1-c1sc2ccc(NC(=O)OC(C)(C)C)cc2c1-c1c(O)c(C)nn(C)c1=O [2-181]
Redroot pigweed [1]
  N: redroot pigweed, herbicidal effect rating: 3 (Herbicidal rate of 40% or more and less than 70%)
Persian speedwell [2]
  herbicidal effect on R: persian speedwell (criteria 0-5): 5 (Herbicidal rate of 90% or more (almost completely withered))
Windgrass [3]
  herbicidal effect on L: windgrass (criteria 0-5): 0 (Herbicidal rate of 5% or less (almost no effect))
Velvetleaf [4]
  herbicidal effect on M: velvetleaf (criteria 0-5): 3 (Herbicidal rate of 40% or more and less than 70%)
Southern crabgrass [5]
  herbicidal effect on F: southern crabgrass (criteria 0-5): 0 (Herbicidal rate of 5% or less (almost no effect))
Rice flat sedge
  herbicidal effect on E: rice flat sedge: 0 (Herbicidal rate of 5% or less (almost no effect))
Italian ryegrass [6]
  herbicidal effect on K: Italian ryegrass (criteria 0-5): 0 (Herbicidal rate of 5% or less (almost no effect))
Southern crabgrass [7]
  F: southern crabgrass, herbicidal effect rating: 0 (Herbicidal rate of 5% or less (almost no effect))
Lambsquarters [8]
  herbicidal effect on O: lambsquarters (criteria 0-5): 4 (Herbicidal rate of 70% or more and less than 90%)
Barnyard grass [9]
  herbicidal effect on H: barnyard grass (criteria 0-5): 0 (Herbicidal rate of 5% or less (almost no effect))
Green foxtail [10]
  G: green foxtail, herbicidal effect rating: 0 (Herbicidal rate of 5% or less (almost no effect))
Barnyard grass [11]
  herbicidal effect on H: barnyard grass: 2 (Herbicidal rate of 20% or more and less than 40%)
Velvetleaf [12]
  M: velvetleaf, herbicidal effect rating: 0 (Herbicidal rate of 5% or less (almost no effect))
Chinese sprangletop
  herbicidal effect on D: Chinese sprangletop: 3 (Herbicidal rate of 40% or more and less than 70%)
Blackgrass [13]
  J: blackgrass, herbicidal effect rating: 0 (Herbicidal rate of 5% or less (almost no effect))
Green foxtail [14]
  herbicidal effect on G: green foxtail (criteria 0-5): 1 (Herbicidal rate of 5% or more and less than 20%)
Blackgrass [15]
  herbicidal effect on J: blackgrass (criteria 0-5): 0 (Herbicidal rate of 5% or less (almost no effect))
Redroot pigweed [16]
  herbicidal effect on N: redroot pigweed (criteria 0-5): 5 (Herbicidal rate of 90% or more (almost completely withered))
Lambsquarters [17]
  O: lambsquarters, herbicidal effect rating: 4 (Herbicidal rate of 70% or more and less than 90%)
Italian ryegrass [18]
  K: Italian ryegrass, herbicidal effect rating: 0 (Herbicidal rate of 5% or less (almost no effect))
Wild oat [19]
  I: wild oat, herbicidal effect rating: 0 (Herbicidal rate of 5% or less (almost no effect))
Chickweed [20]
  P: chickweed, herbicidal effect rating: 4 (Herbicidal rate of 70% or more and less than 90%)
Persian speedwell [21]
  R: persian speedwell, herbicidal effect rating: 4 (Herbicidal rate of 70% or more and less than 90%)
Wild oat [22]
  herbicidal effect on I: wild oat (criteria 0-5): 0 (Herbicidal rate of 5% or less (almost no effect))
Barnyard grass [23]
  H: barnyard grass, herbicidal effect rating: 0 (Herbicidal rate of 5% or less (almost no effect))
Windgrass [24]
  L: windgrass, herbicidal effect rating: 0 (Herbicidal rate of 5% or less (almost no effect))
Chickweed [25]
  herbicidal effect on P: chickweed (criteria 0-5): 5 (Herbicidal rate of 90% or more (almost completely withered))
